Test: Henry solubility constant Hcp at 295 K (mol/(m3 Pa))
Details: reference: Hellmann (1987)

| Compound | Henry solubility constant Hcp at 295 K |
| --- | --- |
| CC(C)=O [propanone] | 0.14 |
| ClC(Cl)(Cl)Cl [tetrachloromethane] | 0.00033 |
| O=[N+]([O-])c1ccccc1 [nitrobenzene] | 0.14 |
| Clc1ccccc1 [chlorobenzene] | 0.0029 |
| CCCCCOC(C)=O [pentyl ethanoate] | 0.034 |
| CC(=O)CC(C)C [4-methyl-2-pentanone] | 0.065 |
| Clc1cc(Cl)cc(Cl)c1 [1,3,5-trichlorobenzene] | 0.035 |
| ClC=C(Cl)Cl [trichloroethene] | 0.00098 |
| O=[N+]([O-])c1ccc(Cl)cc1 [4-chloronitrobenzene] | 0.18 |
| ClCCl [dichloromethane] | 0.0057 |
| c1ccccc1 [benzene] | 0.002 |
| ClC(Cl)=C(Cl)Cl [tetrachloroethene] | 0.00077 |

— Sander's compilation of Henry's law constants (doi:10.1007/bf00475967)
